Source: ChEMBL document CHEMBL3727356, “Therapeutic compounds and compositions” (2014)

Key:
Pyruvate kinase PKLR [1] = biological target: Pyruvate kinase PKLR (Homo sapiens, UniProt P30613, R532W); assay: Activation of PKR R532W mutant (unknown origin) incubated for 60 mins in presence of ADP, PEP and NADH by Spectraax microplate reader based assay
Pyruvate kinase PKLR [2] = biological target: T1, Pyruvate kinase PKLR (Homo sapiens, UniProt P30613); assay: Activation of wild type PKR (unknown origin) incubated for 60 mins in presence of ADP, PEP and NADH by Spectraax microplate reader based assay
Pyruvate kinase PKLR [3] = biological target: T1, Pyruvate kinase PKLR; assay: Activation of wild type PKR (unknown origin) by cell based assay
Pyruvate kinase PKLR [4] = biological target: Pyruvate kinase PKLR (Homo sapiens, UniProt P30613, R510Q); assay: Activation of PKR R510Q mutant (unknown origin) incubated for 60 mins in presence of ADP, PEP and NADH by Spectraax microplate reader based assay
Chain of Pyruvate kinase PKLR (Homo sapiens, UniProt P30613, R510Q) (P30613 whole entry R510Q): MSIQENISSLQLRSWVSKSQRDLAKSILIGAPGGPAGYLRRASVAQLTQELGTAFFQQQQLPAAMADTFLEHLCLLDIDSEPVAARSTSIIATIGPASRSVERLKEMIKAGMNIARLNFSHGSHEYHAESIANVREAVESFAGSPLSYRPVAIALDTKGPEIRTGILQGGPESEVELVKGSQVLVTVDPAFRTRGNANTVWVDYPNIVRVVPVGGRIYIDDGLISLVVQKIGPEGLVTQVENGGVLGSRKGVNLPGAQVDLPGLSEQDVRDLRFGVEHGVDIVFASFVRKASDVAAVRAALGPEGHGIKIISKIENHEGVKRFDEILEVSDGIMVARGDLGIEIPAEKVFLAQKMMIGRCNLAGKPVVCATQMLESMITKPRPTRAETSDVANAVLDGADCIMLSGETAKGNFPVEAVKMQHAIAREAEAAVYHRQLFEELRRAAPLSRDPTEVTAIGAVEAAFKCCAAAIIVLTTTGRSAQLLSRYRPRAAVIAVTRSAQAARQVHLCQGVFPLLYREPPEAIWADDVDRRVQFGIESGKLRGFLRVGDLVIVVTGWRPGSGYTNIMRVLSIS

T1 sequence (P30613 whole entry): as the sequence (P30613 whole entry R510Q) above, with Q510R counted along it
Chain of Pyruvate kinase PKLR (Homo sapiens, UniProt P30613, R532W) (P30613 whole entry R532W): as the sequence (P30613 whole entry R510Q) above, with Q510R, R532W counted along it

Structure (SMILES) | AC50 (Pyruvate kinase PKLR [1]) [nM] | AC50 (Pyruvate kinase PKLR [2]) [nM] | AC50 (Pyruvate kinase PKLR [3]) [nM] | AC50 (Pyruvate kinase PKLR [4]) [nM]
O=C(c1ccc(NS(=O)(=O)c2cccc3cccnc23)cc1)N1CCC(O)(c2cnsc2)CC1 | < 100 | < 100 | < 100 | 
COc1cccc(CC2(O)CCN(C(=O)c3ccc(NS(=O)(=O)c4cccc5cccnc45)cc3)CC2)c1 | < 100 | < 100 | < 100 | 
O=C(c1ccc(NS(=O)(=O)c2cccc3cccnc23)cc1)N1CCC(O)(CC2CC2(F)F)CC1 (centres undefined) | < 100 | < 100 | < 100 | 
O=C(c1ccc(NS(=O)(=O)c2cccc3cccnc23)cn1)N1CCC(O)(c2ccccc2)CC1 |  |  |  | > 10000
O=C(c1ccc(NS(=O)(=O)c2cccc3cccnc23)c(Cl)c1)N1CCC(O)(c2ccccc2Cl)CC1 | < 100 | < 100 | < 100 | 
O=C(c1ccc(NS(=O)(=O)c2cccc3nccnc23)cc1)N1CCC(O)(CCC(F)=C(F)F)CC1 | < 100 | < 100 | < 100 | 
Cc1cc(C(=O)N2CCC(O)(c3cccc(F)c3F)CC2)ccc1NS(=O)(=O)c1cccc2nccnc12 | < 100 | < 100 | < 100 | 
O=C(c1ccc(NS(=O)(=O)c2cccc3cccnc23)cc1)N1CCC(O)(c2ncccc2Cl)CC1 | < 100 | < 100 | < 100 | 
CC(C)CC1(O)CCN(C(=O)c2ccc(NS(=O)(=O)c3cccc4c3OCO4)cc2)CC1 | < 100 | < 100 | < 100 | 
O=C(c1ccc(NS(=O)(=O)c2cccc3scnc23)cc1)N1CCC(O)(c2cccc(F)c2F)CC1 | < 100 | < 100 | < 100 | 
O=C(c1ccc(NS(=O)(=O)c2cccc3nccnc23)cc1)N1CCC(O)(c2ccccc2Cl)CC1 | < 100 | < 100 | < 100 | 
O=C(c1ccc(NS(=O)(=O)c2cccc3scnc23)cc1)N1CCC(O)(CCC=C(F)F)CC1 | < 100 | < 100 | < 100 | 
CC(C)CC1(O)CCN(C(=O)c2ccc(NS(=O)(=O)c3ccc(F)c4cccnc34)cc2)CC1 | < 100 | < 100 | < 100 | 
COc1cccnc1C1(O)CCN(C(=O)c2ccc(NS(=O)(=O)c3cccc4cccnc34)cc2)CC1 |  |  |  | > 10000
CS(=O)(=O)c1ccccc1C1(O)CCN(C(=O)c2ccc(NS(=O)(=O)c3cccc4cccnc34)cc2)CC1 | < 100 | < 100 | < 100 | 
CCCC1(O)CCN(C(=O)c2ccc(NS(=O)(=O)c3cccc4cccnc34)cc2)CC1 | < 100 | < 100 | < 100 | 
O=C(c1ccc(NS(=O)(=O)c2cccc3cccnc23)cc1F)N1CCC(O)(c2ccccc2Cl)CC1 | < 100 | < 100 | < 100 | 
CC(C)(C)C1(O)CCN(C(=O)c2ccc(NS(=O)(=O)c3cccc4cccnc34)cc2)CC1 | < 100 | < 100 | < 100 | 
O=C(c1ccc(NS(=O)(=O)c2cccc3cccnc23)cc1)N1CCC(O)(Cc2cccc(F)c2F)CC1 | < 100 | < 100 | < 100 | 
O=C(c1ccc(NS(=O)(=O)c2cccc3cccnc23)cc1)N1CCC(O)(c2ncccc2C(F)(F)F)CC1 | < 100 | < 100 | < 100 | 
O=C(c1ccc(NS(=O)(=O)c2cccc3cc(F)cnc23)cc1)N1CCC(O)(c2ccccc2)CC1 | < 100 | < 100 | < 100 | 

Structure (SMILES) | AC50 (Pyruvate kinase PKLR [1]) [nM] | AC50 (Pyruvate kinase PKLR [2]) [nM] | AC50 (Pyruvate kinase PKLR [3]) [nM] | AC50 (Pyruvate kinase PKLR [4]) [nM]
O=C(c1ccc(NS(=O)(=O)c2cccc3cccnc23)cc1)N1CCC(CO)(Cc2ccccc2)CC1 | < 100 | < 100 | < 100 | 
O=C(c1ccc(NS(=O)(=O)c2cccc3cccnc23)cc1)N1CCC(O)(c2cccc(C(F)(F)F)n2)CC1 | < 100 | < 100 | < 100 | 
Cc1nc2c(S(=O)(=O)Nc3ccc(C(=O)N4CCC(O)(c5ccccc5Cl)CC4)cc3)cccc2o1 | < 100 | < 100 | < 100 | 
O=C(c1ccc(NS(=O)(=O)c2cccc3scnc23)cc1)N1CCC(O)(c2ccccc2Cl)CC1 | < 100 | < 100 | < 100 | 
O=C(c1ccc(NS(=O)(=O)c2ccc(F)c3cccnc23)cc1)N1CCC(O)(c2ccccc2Cl)CC1 | < 100 | < 100 | < 100 | 
Cc1noc(C)c1CC1(O)CCN(C(=O)c2ccc(NS(=O)(=O)c3cccc4nccnc34)cc2)CC1 | < 100 | < 100 | < 100 | 
Cc1cccc(CC2(O)CCN(C(=O)c3ccc(NS(=O)(=O)c4cccc5cccnc45)cc3)CC2)c1 | < 100 | < 100 | < 100 | 
O=C(c1ccc(NS(=O)(=O)c2c(F)ccc3ncsc23)cc1)N1CCC(O)(c2ccccc2Cl)CC1 |  |  |  | > 10000
O=C(c1ccc(NS(=O)(=O)c2cccc3cccnc23)cc1)N1CCC(O)(c2ccccc2)CC1 | < 100 | < 100 | < 100 | 
CC1(O)CCN(C(=O)c2ccc(NS(=O)(=O)c3cccc4cccnc34)cc2)CC1 |  |  |  | > 10000
CC(C)C1(O)CCN(C(=O)c2ccc(NS(=O)(=O)c3cccc4cccnc34)cc2)CC1 | < 100 | < 100 | < 100 | 
O=C(c1ccc(NS(=O)(=O)c2cccc3cccnc23)c(F)c1F)N1CCC(O)(c2ccccc2)CC1 |  |  |  | > 10000
O=C(c1ccc(NS(=O)(=O)c2cccc3cccnc23)cc1)N1CCC(O)(c2ccncc2Cl)CC1 | < 100 | < 100 | < 100 | 
O=C(c1ccc(NS(=O)(=O)c2cccc3cccnc23)cc1)N1CCC(O)(c2ccccc2F)CC1 | < 100 | < 100 | < 100 | 
O=C(c1ccc(NS(=O)(=O)c2cccc3cccnc23)cc1)N1CCC(O)(c2ccc(F)cc2)CC1 | < 100 | < 100 | < 100 | 
N#Cc1cc(NS(=O)(=O)c2cccc3cccnc23)ccc1C(=O)N1CCC(O)(c2ccccc2Cl)CC1 | < 100 | < 100 | < 100 | 
O=C(c1ccc(NS(=O)(=O)c2cccc3cccnc23)cc1)N1CCC(O)(c2cccnc2C(F)(F)F)CC1 | < 100 | < 100 | < 100 | 
O=C(c1ccc(NS(=O)(=O)c2cccc3cccnc23)cc1)N1CCC(O)(Cc2cccnc2F)CC1 | < 100 | < 100 | < 100 | 
O=C(c1ccc(NS(=O)(=O)c2cccc3cccnc23)cc1)N1CCC(O)(c2cc(F)ccc2Cl)CC1 | < 100 | < 100 | < 100 | 
O=C(c1ccc(NS(=O)(=O)c2cccc3nccnc23)cc1)N1CCC(O)(CCCC(F)F)CC1 | < 100 | < 100 | < 100 | 
O=C(c1ccc(NS(=O)(=O)c2cccc3cccnc23)cc1Cl)N1CCC(O)(c2ccccc2Cl)CC1 | < 100 | < 100 | < 100 | 

Structure (SMILES) | AC50 (Pyruvate kinase PKLR [1]) [nM] | AC50 (Pyruvate kinase PKLR [2]) [nM] | AC50 (Pyruvate kinase PKLR [3]) [nM] | AC50 (Pyruvate kinase PKLR [4]) [nM]
Cc1cc(NS(=O)(=O)c2cccc3cccnc23)ccc1C(=O)N1CCC(O)(c2ccccc2Cl)CC1 | < 100 | < 100 | < 100 | 
O=C(c1ccc(NS(=O)(=O)c2cccc3nsnc23)cc1)N1CCC(O)(c2ccccc2)CC1 |  |  |  | > 10000
O=C(c1ccc(NS(=O)(=O)c2cccc3scnc23)cc1)N1CCC(O)(CCCC(F)(F)F)CC1 | < 100 | < 100 | < 100 | 
O=C(c1ccc(NS(=O)(=O)c2cccc3scnc23)cc1)N1CCC(O)(c2sncc2Cl)CC1 | < 100 | < 100 | < 100 | 
O=C(c1ccc(NS(=O)(=O)c2cccc3cccnc23)cc1)N1CCC(O)(c2ccncc2)CC1 | < 100 | < 100 | < 100 | 
O=C(c1ccc(NS(=O)(=O)c2cccc3cccnc23)c(F)c1)N1CCC(O)(Cc2ccccc2)CC1 | < 100 | < 100 | < 100 | 
O=C(c1ccc(NS(=O)(=O)c2cccc3cccnc23)cc1)N1CCC(O)(c2cccc(F)c2)CC1 | < 100 | < 100 | < 100 | 
O=C(c1ccc(NS(=O)(=O)c2cccc3ncccc23)cc1)N1CCC(O)(c2ccccc2)CC1 |  |  |  | > 10000
O=C(c1ccc(NS(=O)(=O)c2cccc3scnc23)cc1)N1CCC(O)(CC2CCC2)CC1 | < 100 | < 100 | < 100 | 
O=C(c1ccc(NS(=O)(=O)c2cccc3cccnc23)cc1)N1CCC(O)(Cc2cccc(F)n2)CC1 | < 100 | < 100 | < 100 | 
Cn1nccc1CC1(O)CCN(C(=O)c2ccc(NS(=O)(=O)c3cccc4nccnc34)cc2)CC1 | < 100 | < 100 | < 100 | 
CC(C)CC1(O)CCN(C(=O)c2ccc(NS(=O)(=O)c3cncc4cccnc34)cc2)CC1 | < 100 | < 100 | < 100 | 
O=C(c1ccc(NS(=O)(=O)c2cccc3cccnc23)cc1)N1CCC(O)(c2cccc(C(F)(F)F)c2)CC1 | < 100 | < 100 | < 100 | 
CC(C)CC1(O)CCN(C(=O)c2ccc(NS(=O)(=O)c3cccc4nccnc34)cc2OC(F)F)CC1 | < 100 | < 100 | < 100 | 
Cc1cccnc1C1(O)CCN(C(=O)c2ccc(NS(=O)(=O)c3cccc4cccnc34)cc2)CC1 | < 100 | < 100 | < 100 | 
O=C(c1ccc(NS(=O)(=O)c2cccc3cccnc23)cc1)N1CCC(O)(CCC(F)F)CC1 | < 100 | < 100 | < 100 | 
O=C(c1ccc(NS(=O)(=O)c2cccc3c(O)ncnc23)cc1)N1CCC(O)(c2cccc(F)c2F)CC1 | < 100 | < 100 | < 100 | 
CC(F)(F)CCC1(O)CCN(C(=O)c2ccc(NS(=O)(=O)c3cccc4nc(N)cnc34)cc2)CC1 | < 100 | < 100 | < 100 | 
Cc1ncccc1C1(O)CCN(C(=O)c2ccc(NS(=O)(=O)c3cccc4cccnc34)cc2)CC1 | < 100 | < 100 | < 100 | 
